Calls of active or inactive are those of the source. The rule behind the calls is not given here.
Tests used:
[1] = Binding affinity to RING1B (10 to 116 residues)/BMI1 (1 to 104 residues) (unknown origin) extracted from Escherichia coli BL21 (DE3) cells assessed as chemical shift perturbation for amide of Gly83 residue by measuring estimated dissociation constant by 1H-15N HSQC spectra based NMR titration analysis; parameters: species or system Homo sapiens
Homo sapiens [2] = species on record: Homo sapiens; assay: Binding affinity to 15N-labeled RING1B (10 to 116 residues)/BMI1 (1 to 104 residues) (unknown origin) extracted from Escherichia coli BL21 (DE3) cells assessed as sum of A79, G83 and T89 chemical shift perturbations at 100 uM by NMR binding analysis
Homo sapiens [3] = species on record: Homo sapiens; assay: Binding affinity to 15N-labeled RING1B (10 to 116 residues)/BMI1 (1 to 104 residues) (unknown origin) extracted from Escherichia coli BL21 (DE3) cells assessed as sum of A79, G83 and T89 chemical shift perturbations at 200 uM by NMR binding analysis
Homo sapiens [4] = species on record: Homo sapiens; assay: Binding affinity to 15N-labeled RING1B (10 to 116 residues)/BMI1 (1 to 104 residues) (unknown origin) extracted from Escherichia coli BL21 (DE3) cells assessed as ratio of chemical shift perturbations at 1:2 compound concentration ration by NMR binding analysis
[5] = Binding affinity to RING1B (10 to 116 residues)/BMI1 (1 to 104 residues) (unknown origin) extracted from Escherichia coli BL21 (DE3) cells assessed as dissociation constant by ITC analysis; parameters: species or system Homo sapiens
[6] = (§1) Inhibition of 6His-tagged RING1B (10 to 116 residues)/BMI1 (1 to 104 residues) (unknown origin) extracted from Escherichia coli BL21 (DE3) cells preincubated with compound for 1 hrs followed by 3-(1-(4,26-dioxo-30-((3aS,4S,6aR)-2-oxohexahydro-1H-thieno[3,4-d]imidazol-4-yl)-7,10,13,16,19,22-hexaoxa-3,25-diazatriacontyl)-6-methoxy-1H-indol-4-yl)-5-(6-fluoro-1H-indol-4-yl)-4-isopropyl-1H-pyrrole-2-carboxylic acid addition and measured after 1 hrs by Alphascreen competition assay; parameters: species or system Homo sapiens
Homo sapiens [7] = species on record: Homo sapiens; assay: Binding affinity to 15N-labeled RING1A (7 to 113 residues)/BMI1 (1 to 104 residues) (unknown origin) extracted from Escherichia coli BL21 (DE3) cells assessed as chemical shift perturbation for amide of Gly83 residue at 60 to 120 uM by 1H-15N HSQC spectra based NMR titration analysis; details: dose 60-120 µM
Homo sapiens [8] = species on record: Homo sapiens; assay: Binding affinity to 15N-labeled RING1B (10 to 116 residues)/BMI1 (1 to 104 residues) (unknown origin) extracted from Escherichia coli BL21 (DE3) cells assessed as chemical shift perturbation for amide of Gly83 residue at 60 to 120 uM by 1H-15N HSQC spectra based NMR titration analysis; details: dose 60-120 µM
[9] = (§2) Inhibition of RING1B (10 to 116 residues)-BMI1 (1 to 104 residues) (unknown origin) extracted from Escherichia coli BL21 (DE3) cells using HeLa nucleosome as substrate assessed as reduction in reduction in H2AK119 ubiquitination preincubated with compound for 1 hrs followed by flag-tagged ubiquitin and substrate addition and measured after 1 hrs by Western blot analysis; parameters: species or system Homo sapiens
Homo sapiens [10] = species on record: Homo sapiens; assay: as §2; details: time 2.0 hrs
[11] = as §1, with “RING1A (7” for “RING1B (10”, “113 residues)-BMI1” for “116 residues)/BMI1”; parameters: species or system Homo sapiens
[12] = Selectivity ratio of IC50 for inhibition of 6His-tagged RING1B (10 to 116 residues)-BMI1 (1 to 104 residues) (unknown origin) extracted from Escherichia coli BL21 (DE3) cells to IC50 for inhibition of 6His-tagged RING1A (7 to 113 residues)-BMI1 (1 to 104 residues) (unknown origin) extracted from Escherichia coli BL21 (DE3) cells
[13] = Binding affinity to 15N-labeled RING1B (10 to 116 residues)/BMI1 (1 to 104 residues) (unknown origin) extracted from Escherichia coli BL21 (DE3) cells assessed as dissociation constant by NMR-based fragment screening analysis; parameters: species or system Homo sapiens

| Compound | Activity (Homo sapiens [2]) [Hz] | Activity (Homo sapiens [3]) [Hz] | Ratio (Homo sapiens [4]) | IC50 [6] [µM] | other results |
| --- | --- | --- | --- | --- | --- |
| CCc1c(-c2cccc3[nH]ccc23)[nH]c(C(=O)O)c1-c1ccccc1 | – | – | – | – | Kd [1]: 30 µM |
| COc1cc(-c2[nH]c(C(=O)O)c(-c3c(Cl)ccc4[nH]ccc34)c2C(C)C)c2cc[nH]c2c1 | – | – | – | 5 | – |
| CC(C)c1c(-c2cccc3[nH]c(CO)cc23)[nH]c(C(=O)O)c1-c1c(Cl)ccc2[nH]ccc12 | – | – | – | 2 | – |
| CCOc1cc(-c2c(C(=O)O)[nH]c(-c3cc(F)cc4[nH]ccc34)c2C(C)C)c2cc[nH]c2c1 | 313 | 331 | 0.95 | 2.3 | – |
| COc1cc(-c2c(C(=O)O)[nH]c(-c3cc(F)cc4[nH]ccc34)c2C(C)C)c2ccn(CCNC(=O)CCOCCOCCOCCOCCOCCOCCNC(=O)CCCC[C@@H]3SC[C@@H]4NC(=O)N[C@@H]43)c2c1 | – | – | – | – | Activity (Homo sapiens [7]): Active; Activity (Homo sapiens [8]): Active |
| COc1cc(-c2c(C(=O)O)[nH]c(-c3cc(F)cc4[nH]ccc34)c2C(C)C)c2cc[nH]c2c1 | 318 | 338 | 0.92 | 2.5 | – |
| CC(C)c1c(-c2cccc3[nH]c(C(=O)O)cc23)[nH]c(C(=O)O)c1-c1c(Cl)ccc2[nH]ccc12 | – | – | – | 2.2 | – |
| CC(C)c1c(-c2cc(C(F)(F)F)cc3[nH]ccc23)[nH]c(C(=O)O)c1-c1c(Cl)ccc2[nH]ccc12 | – | – | – | 7.2 | IC50 [9]: 6.7 µM; inhibition (Homo sapiens [10]): Dose-dependent-effect; Inhibition Of E3 Ligase Activity Of Prc1 Observed |
| CC(C)c1c(-c2cc(F)cc3[nH]ccc23)[nH]c(C(=O)O)c1-c1cc(C(F)(F)F)cc2[nH]ccc12 | 298 | 319 | 0.93 | 5.5 | – |
| CCc1c(-c2cccc3[nH]ccc23)[nH]c(C(=O)O)c1C1CCCCC1 | – | – | – | – | Kd [1]: 170 µM |
| CCc1c(C(=O)O)[nH]c(-c2cccc3[nH]ccc23)c1CC | – | – | – | – | Kd [1]: 250 µM |
| O=C(O)c1ccc(-c2ccccc2)s1 | – | – | – | – | Kd [13]: 7000 µM |
| CCc1c(-c2cccc3[nH]ccc23)[nH]c(C(=O)O)c1-c1ccccc1Cl | – | – | – | – | Kd [13]: 11.5 µM |
| O=C(O)c1ccc(-c2ccccc2)[nH]1 | – | – | – | – | Kd [13]: 3600 µM |
| CC(C)c1c(-c2ccc3cc[nH]c3c2)[nH]c(C(=O)O)c1-c1c(Cl)ccc2[nH]ccc12 | – | – | – | 10.9 | – |
| CC(C)c1c(-c2cc(F)cc3cc[nH]c23)[nH]c(C(=O)O)c1-c1c(Cl)ccc2[nH]ccc12 | – | – | – | 4.4 | – |
| O=C(O)c1ccc(-c2cccc3[nH]ccc23)[nH]1 | – | – | – | – | Kd [1]: 2200 µM |
| Cc1cc(C(=O)O)[nH]c1-c1cccc2[nH]ccc12 | – | – | – | – | Kd [13]: 1400 µM |
| Cc1cc(-c2cccc3[nH]ccc23)[nH]c1C(=O)O | – | – | – | – | Kd [1]: 1100 µM |
| CC(C)c1c(-c2ccc3[nH]ccc3c2)[nH]c(C(=O)O)c1-c1c(Cl)ccc2[nH]ccc12 | – | – | – | 4 | – |

Further lines, with some results ahead:

| Activity (Homo sapiens [2]) [Hz] | Activity (Homo sapiens [3]) [Hz] | Ratio (Homo sapiens [4]) | IC50 [6] [µM] | Compound | other results |
| --- | --- | --- | --- | --- | --- |
| 308 | 329 | 0.94 | 3.3 | CC(C)c1c(-c2cc(F)cc3[nH]ccc23)[nH]c(C(=O)O)c1-c1cccc2[nH]ccc12 | Kd [5]: 4 µM |
| – | – | – | 5.1 | Cc1ccc2[nH]ccc2c1-c1[nH]c(C(=O)O)c(-c2c(Cl)ccc3[nH]ccc23)c1C(C)C | – |
| – | – | – | 5.8 | Cc1cc(-c2[nH]c(C(=O)O)c(-c3c(Cl)ccc4[nH]ccc34)c2C(C)C)c2cc[nH]c2c1 | IC50 [11]: 2.5 µM; Ratio IC50 [12]: 2 |
| 285 | 309 | 0.92 | 5.4 | CCc1cc(-c2c(C(=O)O)[nH]c(-c3cc(F)cc4[nH]ccc34)c2C(C)C)c2cc[nH]c2c1 | IC50 [11]: 3.2 µM; Ratio IC50 [12]: 2 |
| 138 | 211 | 0.65 | 15.8 | O=C(O)c1[nH]c(-c2cccc3[nH]ccc23)c(C2CC2)c1-c1cccc2[nH]ccc12 | – |
| 215 | 264 | 0.81 | 8.2 | CC(c1c(-c2cccc3[nH]ccc23)[nH]c(C(=O)O)c1-c1cccc2[nH]ccc12)C(F)F (stereo not drawn) | IC50 [11]: 4.3 µM; Ratio IC50 [12]: 2 |
| 216 | 277 | 0.78 | 8 | CC(CF)c1c(-c2cccc3[nH]ccc23)[nH]c(C(=O)O)c1-c1cccc2[nH]ccc12 (stereo not drawn) | – |
| – | – | – | 6.3 | CCc1cc(-c2[nH]c(C(=O)O)c(-c3c(Cl)ccc4[nH]ccc34)c2C(C)C)c2cc[nH]c2c1 | – |
| – | – | – | 2.9 | CC(C)c1c(-c2cccc3[nH]ccc23)[nH]c(C(=O)O)c1-c1c(Cl)ccc2[nH]ccc12 | – |
| 107 | 172 | 0.62 | 37.7 | CC(CO)c1c(-c2cccc3[nH]ccc23)[nH]c(C(=O)O)c1-c1cccc2[nH]ccc12 (stereo not drawn) | – |
| – | – | – | 5.3 | CC(C)c1c(-c2cc(Cl)cc3[nH]ccc23)[nH]c(C(=O)O)c1-c1c(Cl)ccc2[nH]ccc12 | – |
| 102 | 163 | 0.63 | 13 | CCc1c(-c2cccc3[nH]ccc23)[nH]c(C(=O)O)c1-c1cccc2[nH]ccc12 | Kd [13]: 9 µM; IC50 [9]: 19.3 µM; inhibition (Homo sapiens [10]): Dose-dependent-effect; Inhibition Of E3 Ligase Activity Of Prc1 Observed |
| 261 | 319 | 0.82 | 4.8 | Cc1cc(-c2c(C(=O)O)[nH]c(-c3cc(F)cc4[nH]ccc34)c2C(C)C)c2cc[nH]c2c1 | IC50 [11]: 2.6 µM; Ratio IC50 [12]: 2 |
| 280 | 305 | 0.92 | 2.8 | CC(C)c1c(-c2cc(F)cc3[nH]ccc23)[nH]c(C(=O)O)c1-c1cc(Cl)cc2[nH]ccc12 | – |
| 295 | 311 | 0.95 | 3.6 | CC(C)c1c(-c2cccc3[nH]ccc23)[nH]c(C(=O)O)c1-c1cccc2[nH]ccc12 | Kd [5]: 6.5 µM |
| 268 | 291 | 0.92 | 5.6 | CCC(C)c1c(-c2cccc3[nH]ccc23)[nH]c(C(=O)O)c1-c1cccc2[nH]ccc12 (stereo not drawn) | – |
| 320 | 330 | 0.97 | 4.3 | CC(C)c1c(-c2cc(F)cc3[nH]ccc23)[nH]c(C(=O)O)c1-c1cc(F)cc2[nH]ccc12 | – |

— ChEMBL document CHEMBL6096680, “Development of PRC1 Inhibitors Employing Fragment-Based Approach and NMR-Guided Optimization” (J Med Chem, 2025)
